ChEMBL document CHEMBL1201862, “PubChem BioAssay data set” (2004)
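Each compound was tested at five concentrations against cells in 96-well plates for 48 hours. GI50: concentration for 50% inhibition of growth.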 Activity calls are given as the source filed them. No stated cut-off is given here; in the data, active = GI50 up to about 1.1 µM and inactive = higher.

Experiments:
Assay in all cases: DTP human tumour cell line panel, 48 h
TK-10 = tested on: TK-10
SNB-75 = tested on: SNB-75
OVCAR-3 = tested on: OVCAR-3
MDA-MB-435 = tested on: MDA-MB-435
HCC 2998 = tested on: HCC 2998
M14 = tested on: M14
KM12 = tested on: KM12
HL-60 = tested on: HL-60
SN12C = tested on: SN12C
A549 = tested on: A549
SF-268 = tested on: SF-268
UACC-62 = tested on: UACC-62
T47D = tested on: T47D
MOLT-4 = tested on: MOLT-4
HCT-116 = tested on: HCT-116
OVCAR-5 = tested on: OVCAR-5
SF-295 = tested on: SF-295
DU-145 = tested on: DU-145
K562 = tested on: K562
MDA-MB-231 = tested on: MDA-MB-231

Measured: GI50

Cc1cc2ccccc2n2c1nc1ccccc12
inactive: TK-10 > 100 µM | SNB-75 > 100 µM | OVCAR-3 > 100 µM | MDA-MB-435 > 100 µM | HCC 2998 > 100 µM | M14 > 100 µM | KM12 > 100 µM | HL-60 > 100 µM | SN12C > 100 µM | A549 > 100 µM | SF-268 > 100 µM | UACC-62 > 100 µM | T47D > 100 µM | MOLT-4 > 100 µM | HCT-116 > 100 µM | OVCAR-5 > 100 µM | SF-295 > 100 µM | DU-145 > 100 µM | K562 > 100 µM

CC(=O)OC[C@@]12CC[C@H]3C(C)(C)CCC[C@]3(C)[C@H]1C[C@@H](C1=CC(=O)O[C@H]1O)O2
inactive: TK-10 3.94 µM | SNB-75 3.74 µM | OVCAR-3 2.1 µM | MDA-MB-435 2.13 µM | HCC 2998 1.61 µM | M14 2.45 µM | KM12 6.75 µM | SN12C 3.55 µM | A549 6.97 µM | SF-268 10.4 µM | UACC-62 1.94 µM | T47D 2.59 µM | MOLT-4 1.36 µM | HCT-116 2.84 µM | OVCAR-5 19.7 µM | SF-295 8.67 µM | DU-145 7.29 µM | K562 1.48 µM

CCCC(=O)/C=C/S/C=C/C(=O)CCC
inactive: TK-10 2.51 µM | SNB-75 27.2 µM | OVCAR-3 4.09 µM | MDA-MB-435 5.46 µM | M14 3.28 µM | KM12 15.3 µM | MDA-MB-231 4.84 µM | SN12C 13.2 µM | A549 28.3 µM | SF-268 26.9 µM | UACC-62 12.2 µM | T47D 4.09 µM | HCT-116 1.65 µM | OVCAR-5 3.41 µM | SF-295 23.9 µM | DU-145 11.5 µM

N#C/C(C(=O)Nc1ccc(Cl)cc1)=C(/N)N1CCCCC1
inactive: SNB-75 24.7 µM | OVCAR-3 > 100 µM | MDA-MB-435 > 100 µM | HCC 2998 > 100 µM | M14 85.1 µM | KM12 > 100 µM | HL-60 10 µM | SN12C > 100 µM | A549 > 100 µM | UACC-62 42.5 µM | T47D > 100 µM | MOLT-4 > 100 µM | HCT-116 99.5 µM | OVCAR-5 > 100 µM | SF-295 54 µM | DU-145 > 100 µM | K562 > 100 µM

O=c1cc(NNc2cccc(F)c2)[nH]c(=O)[nH]1
inactive: TK-10 14.2 µM | SNB-75 > 100 µM | OVCAR-3 16.5 µM | HCC 2998 95.9 µM | M14 18.2 µM | KM12 > 100 µM | MDA-MB-231 16.7 µM | HL-60 19.1 µM | SN12C > 100 µM | A549 > 100 µM | SF-268 > 100 µM | UACC-62 35 µM | T47D 14.9 µM | MOLT-4 27.9 µM | HCT-116 17.3 µM | OVCAR-5 > 100 µM | SF-295 > 100 µM | DU-145 > 100 µM | K562 27.3 µM

Cc1ccc2nc(NC(=O)C(=O)C3C(=O)NC(=S)NC3=O)sc2c1
inactive: TK-10 > 100 µM | SNB-75 > 100 µM | OVCAR-3 > 100 µM | MDA-MB-435 > 100 µM | HCC 2998 > 100 µM | M14 > 100 µM | KM12 > 100 µM | MDA-MB-231 > 100 µM | HL-60 > 100 µM | SN12C > 100 µM | A549 > 100 µM | SF-268 > 100 µM | UACC-62 > 100 µM | T47D > 100 µM | MOLT-4 > 100 µM | HCT-116 > 100 µM | OVCAR-5 > 100 µM | SF-295 > 100 µM
